Measurements as given in the NIST ThermoML archive (doi:10.1021/acs.jced.8b00936).
± gives the expanded uncertainty stated by the source.

Conditions: 100 kPa, Liquid, Pycnometric method

mass density (273.15 K): 859.9 ± 4.9 kg/m3
mass density (283.15 K): 849.3 ± 4.8 kg/m3
SMILES: CCCCOCCOCCCC [5,8-dioxadodecane]
